Results on 20 compounds are retold here after ChEMBL document CHEMBL1139379, “Design, structure-activity relationships and in vivo characterization of 4-amino-3-benzimidazol-2-ylhydroquinolin-2-ones: a novel class of receptor tyrosine kinase inhibitors” (J Med Chem, 2009).

Sequence of Fibroblast growth factor receptor 1 (P11362 whole entry): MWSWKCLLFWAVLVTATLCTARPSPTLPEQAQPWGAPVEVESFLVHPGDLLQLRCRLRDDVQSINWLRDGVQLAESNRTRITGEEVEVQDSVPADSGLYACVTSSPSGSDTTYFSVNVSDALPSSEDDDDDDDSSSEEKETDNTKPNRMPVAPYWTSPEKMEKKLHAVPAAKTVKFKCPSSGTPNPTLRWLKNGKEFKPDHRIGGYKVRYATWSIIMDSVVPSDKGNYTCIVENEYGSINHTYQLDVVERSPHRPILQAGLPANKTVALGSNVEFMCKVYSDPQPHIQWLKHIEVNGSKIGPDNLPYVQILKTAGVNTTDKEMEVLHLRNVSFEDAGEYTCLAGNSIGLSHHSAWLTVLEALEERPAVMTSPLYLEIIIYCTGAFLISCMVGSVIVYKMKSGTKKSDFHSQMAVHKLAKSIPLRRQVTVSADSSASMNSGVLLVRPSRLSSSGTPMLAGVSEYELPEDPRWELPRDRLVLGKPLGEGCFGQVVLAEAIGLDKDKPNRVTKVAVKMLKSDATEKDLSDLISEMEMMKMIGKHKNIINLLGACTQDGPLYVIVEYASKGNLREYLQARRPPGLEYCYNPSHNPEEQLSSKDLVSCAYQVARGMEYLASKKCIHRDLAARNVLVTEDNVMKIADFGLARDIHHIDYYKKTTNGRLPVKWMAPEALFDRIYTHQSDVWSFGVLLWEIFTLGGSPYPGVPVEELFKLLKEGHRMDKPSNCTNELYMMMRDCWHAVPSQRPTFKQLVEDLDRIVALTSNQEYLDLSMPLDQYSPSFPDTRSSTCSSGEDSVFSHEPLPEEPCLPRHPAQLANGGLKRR

One assay has as its target Fibroblast growth factor receptor 1 (Homo sapiens, UniProt P11362). The assay is described as follows: Inhibition of human recombinant FGFR1.
Conditions: not given
Turning to `Cn1c(-c2c(O)c3ccccc3n(C)c2=O)nc2ccccc21`, the IC50 was over 25000 nM.

Turning to `CNc1cccc2[nH]c(=O)c(-c3nc4ccc(N5CCN(C)CC5)cc4[nH]3)c(N)c12`, the IC50 came out at 15 nM.

As to `CN1CCN(c2ccc3nc(-c4c(N)c5cc(F)ccc5[nH]c4=O)[nH]c3c2)CC1`, the IC50 was found to be 40 nM.

In the case of `CN1CCN(c2ccc3nc(-c4c(N)c5cc(N)ccc5[nH]c4=O)[nH]c3c2)CC1`, the IC50 is 7 nM.

Take `CN1CCN(c2ccc3nc(-c4c(N)c5ccc(F)cc5[nH]c4=O)[nH]c3c2)CC1`: the IC50 amounted to 3 nM.

On to `Cc1ccc2nc(-c3c(N)c4ccccc4[nH]c3=O)[nH]c2c1`, for which the IC50 came out at 80 nM.

Consider `Cc1cc2nc(-c3c(N)c4ccccc4[nH]c3=O)[nH]c2cc1C`, for which the IC50 stood at 70 nM.

Take `CN1CCN(C(=O)c2ccc3[nH]c(-c4c(N)c5ccccc5[nH]c4=O)nc3c2)CC1`: the IC50 amounted to 10 nM.

As for `CN1CCN(c2ccc3[nH]c(-c4c(N)c5c(F)cc(F)cc5[nH]c4=O)nc3c2)CC1`, the IC50 came out at 30 nM.

`CN1CCN(c2ccc3nc(-c4c(N)c5cc(F)c(N(C)C)cc5[nH]c4=O)[nH]c3c2)CC1`: the IC50 worked out at 1800 nM.

For the compound `CN1CCN(c2cccc3[nH]c(=O)c(-c4nc5ccccc5[nH]4)c(N)c23)CC1`, the IC50 was 1 nM.

Take `CNc1c(-c2nc3ccccc3[nH]2)c(=O)[nH]c2ccccc12`: the IC50 was 120 nM.

On to `CN1CCN(c2ccc3[nH]c(-c4c(N)c5cc(F)c(F)cc5[nH]c4=O)nc3c2)CC1`, for which the IC50 was 110 nM.

As for `CN1CCCN(c2ccc3[nH]c(-c4c(N)c5ccccc5[nH]c4=O)nc3c2)CC1`, the IC50 amounted to 20 nM.

Consider `Cn1c(=O)c(-c2nc3ccccc3[nH]2)c(O)c2ccccc21`, for which the IC50 is over 25000 nM.

As for `CN1CCN(c2ccc3[nH]c(-c4c(N)c5cc(Cl)ccc5[nH]c4=O)nc3c2)CC1`, the IC50 stood at 24 nM.

On to `O=c1[nH]c2ccccc2c(NCC2CCNCC2)c1-c1nc2ccccc2[nH]1`, for which the IC50 amounted to 550 nM.

As for `CN1CCN(c2ccc3nc(-c4c(N)c5cc(C(=O)NCc6ccccc6)ccc5[nH]c4=O)[nH]c3c2)CC1`, the IC50 was found to be 10 nM.

With `Nc1c(-c2nc3ccc(OCCN4CCOCC4)cc3[nH]2)c(=O)[nH]c2ccccc12`, the concentration for half-maximal inhibition (IC50) turned out to be 20 nM.

`CN1CCN(c2ccc3[nH]c(-c4c(N)c5cccc(F)c5[nH]c4=O)nc3c2)CC1`: the IC50 came out at 190 nM.

The target in a further assay is Platelet-derived growth factor receptor beta (Homo sapiens, UniProt P09619). The assay can be described thus: Inhibition of human recombinant PDGFRbeta.
Sequence of Platelet-derived growth factor receptor beta (P09619 whole entry): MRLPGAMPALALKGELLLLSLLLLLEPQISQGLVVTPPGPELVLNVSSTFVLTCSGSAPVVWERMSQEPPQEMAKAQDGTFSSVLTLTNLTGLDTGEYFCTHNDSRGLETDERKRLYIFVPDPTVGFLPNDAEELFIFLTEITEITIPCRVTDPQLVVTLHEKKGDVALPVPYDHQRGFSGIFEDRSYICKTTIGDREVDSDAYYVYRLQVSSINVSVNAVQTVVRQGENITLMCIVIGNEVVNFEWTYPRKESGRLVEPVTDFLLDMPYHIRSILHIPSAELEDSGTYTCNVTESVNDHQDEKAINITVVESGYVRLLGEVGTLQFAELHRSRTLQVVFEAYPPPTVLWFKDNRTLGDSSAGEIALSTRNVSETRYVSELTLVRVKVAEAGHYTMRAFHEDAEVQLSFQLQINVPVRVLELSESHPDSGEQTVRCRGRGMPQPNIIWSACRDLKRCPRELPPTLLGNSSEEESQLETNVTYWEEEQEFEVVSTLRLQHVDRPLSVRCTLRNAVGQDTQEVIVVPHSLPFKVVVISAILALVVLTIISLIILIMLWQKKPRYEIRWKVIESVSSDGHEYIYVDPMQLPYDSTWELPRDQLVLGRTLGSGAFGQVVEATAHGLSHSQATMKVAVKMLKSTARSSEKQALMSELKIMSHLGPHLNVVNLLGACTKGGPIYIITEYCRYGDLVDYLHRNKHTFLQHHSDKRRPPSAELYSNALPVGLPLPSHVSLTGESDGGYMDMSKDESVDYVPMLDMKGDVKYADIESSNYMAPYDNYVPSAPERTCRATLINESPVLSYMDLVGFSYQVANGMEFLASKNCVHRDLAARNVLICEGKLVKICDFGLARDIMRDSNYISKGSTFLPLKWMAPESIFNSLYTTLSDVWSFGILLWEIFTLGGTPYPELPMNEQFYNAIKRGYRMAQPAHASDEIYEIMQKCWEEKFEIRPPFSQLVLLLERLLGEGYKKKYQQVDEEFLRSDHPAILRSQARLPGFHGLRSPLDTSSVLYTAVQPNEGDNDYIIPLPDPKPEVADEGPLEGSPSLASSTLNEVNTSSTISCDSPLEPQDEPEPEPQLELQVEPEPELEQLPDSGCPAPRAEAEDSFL
Conditions: not given
For the compound `Cn1c(-c2c(O)c3ccccc3n(C)c2=O)nc2ccccc21`, the IC50 is over 25000 nM.

Regarding `CNc1cccc2[nH]c(=O)c(-c3nc4ccc(N5CCN(C)CC5)cc4[nH]3)c(N)c12`, the IC50 amounted to 2 nM.

In the case of `CN1CCN(c2ccc3nc(-c4c(N)c5cc(F)ccc5[nH]c4=O)[nH]c3c2)CC1`, the IC50 turned out to be 1 nM.

Turning to `CN1CCN(c2ccc3nc(-c4c(N)c5cc(N)ccc5[nH]c4=O)[nH]c3c2)CC1`, the IC50 amounted to 7 nM.

For the compound `CN1CCN(c2ccc3nc(-c4c(N)c5ccc(F)cc5[nH]c4=O)[nH]c3c2)CC1`, the IC50 was 0.4 nM.

As for `Cc1ccc2nc(-c3c(N)c4ccccc4[nH]c3=O)[nH]c2c1`, the IC50 worked out at 30 nM.

For the compound `Cc1cc2nc(-c3c(N)c4ccccc4[nH]c3=O)[nH]c2cc1C`, the IC50 was 12 nM.

For `CN1CCN(C(=O)c2ccc3[nH]c(-c4c(N)c5ccccc5[nH]c4=O)nc3c2)CC1`, the IC50 came to 0.9 nM.

Consider `CN1CCN(c2ccc3[nH]c(-c4c(N)c5c(F)cc(F)cc5[nH]c4=O)nc3c2)CC1`, for which the IC50 stood at 5 nM.

Turning to `CN1CCN(c2ccc3nc(-c4c(N)c5cc(F)c(N(C)C)cc5[nH]c4=O)[nH]c3c2)CC1`, the IC50 stood at 30 nM.

In the case of `CN1CCN(c2cccc3[nH]c(=O)c(-c4nc5ccccc5[nH]4)c(N)c23)CC1`, the IC50 was 0.3 nM.

With `CNc1c(-c2nc3ccccc3[nH]2)c(=O)[nH]c2ccccc12`, the IC50 was 30 nM.

Turning to `CN1CCN(c2ccc3[nH]c(-c4c(N)c5cc(F)c(F)cc5[nH]c4=O)nc3c2)CC1`, the IC50 amounted to 3 nM.

Regarding `CN1CCCN(c2ccc3[nH]c(-c4c(N)c5ccccc5[nH]c4=O)nc3c2)CC1`, the IC50 was 5 nM.

For `Cn1c(=O)c(-c2nc3ccccc3[nH]2)c(O)c2ccccc21`, the IC50 came out at 19000 nM.

As for `CN1CCN(c2ccc3[nH]c(-c4c(N)c5cc(Cl)ccc5[nH]c4=O)nc3c2)CC1`, the IC50 amounted to 8 nM.

Regarding `O=c1[nH]c2ccccc2c(NCC2CCNCC2)c1-c1nc2ccccc2[nH]1`, the IC50 was 0.9 nM.

Take `CN1CCN(c2ccc3nc(-c4c(N)c5cc(C(=O)NCc6ccccc6)ccc5[nH]c4=O)[nH]c3c2)CC1`: the IC50 stood at 0.1 nM.

On to `Nc1c(-c2nc3ccc(OCCN4CCOCC4)cc3[nH]2)c(=O)[nH]c2ccccc12`, for which the IC50 amounted to 5 nM.

For the compound `CN1CCN(c2ccc3[nH]c(-c4c(N)c5cccc(F)c5[nH]c4=O)nc3c2)CC1`, the IC50 was 14 nM.

The next assay deals with Vascular endothelial growth factor receptor 2 (Homo sapiens, UniProt P35968).
Sequence of Vascular endothelial growth factor receptor 2 (P35968 whole entry): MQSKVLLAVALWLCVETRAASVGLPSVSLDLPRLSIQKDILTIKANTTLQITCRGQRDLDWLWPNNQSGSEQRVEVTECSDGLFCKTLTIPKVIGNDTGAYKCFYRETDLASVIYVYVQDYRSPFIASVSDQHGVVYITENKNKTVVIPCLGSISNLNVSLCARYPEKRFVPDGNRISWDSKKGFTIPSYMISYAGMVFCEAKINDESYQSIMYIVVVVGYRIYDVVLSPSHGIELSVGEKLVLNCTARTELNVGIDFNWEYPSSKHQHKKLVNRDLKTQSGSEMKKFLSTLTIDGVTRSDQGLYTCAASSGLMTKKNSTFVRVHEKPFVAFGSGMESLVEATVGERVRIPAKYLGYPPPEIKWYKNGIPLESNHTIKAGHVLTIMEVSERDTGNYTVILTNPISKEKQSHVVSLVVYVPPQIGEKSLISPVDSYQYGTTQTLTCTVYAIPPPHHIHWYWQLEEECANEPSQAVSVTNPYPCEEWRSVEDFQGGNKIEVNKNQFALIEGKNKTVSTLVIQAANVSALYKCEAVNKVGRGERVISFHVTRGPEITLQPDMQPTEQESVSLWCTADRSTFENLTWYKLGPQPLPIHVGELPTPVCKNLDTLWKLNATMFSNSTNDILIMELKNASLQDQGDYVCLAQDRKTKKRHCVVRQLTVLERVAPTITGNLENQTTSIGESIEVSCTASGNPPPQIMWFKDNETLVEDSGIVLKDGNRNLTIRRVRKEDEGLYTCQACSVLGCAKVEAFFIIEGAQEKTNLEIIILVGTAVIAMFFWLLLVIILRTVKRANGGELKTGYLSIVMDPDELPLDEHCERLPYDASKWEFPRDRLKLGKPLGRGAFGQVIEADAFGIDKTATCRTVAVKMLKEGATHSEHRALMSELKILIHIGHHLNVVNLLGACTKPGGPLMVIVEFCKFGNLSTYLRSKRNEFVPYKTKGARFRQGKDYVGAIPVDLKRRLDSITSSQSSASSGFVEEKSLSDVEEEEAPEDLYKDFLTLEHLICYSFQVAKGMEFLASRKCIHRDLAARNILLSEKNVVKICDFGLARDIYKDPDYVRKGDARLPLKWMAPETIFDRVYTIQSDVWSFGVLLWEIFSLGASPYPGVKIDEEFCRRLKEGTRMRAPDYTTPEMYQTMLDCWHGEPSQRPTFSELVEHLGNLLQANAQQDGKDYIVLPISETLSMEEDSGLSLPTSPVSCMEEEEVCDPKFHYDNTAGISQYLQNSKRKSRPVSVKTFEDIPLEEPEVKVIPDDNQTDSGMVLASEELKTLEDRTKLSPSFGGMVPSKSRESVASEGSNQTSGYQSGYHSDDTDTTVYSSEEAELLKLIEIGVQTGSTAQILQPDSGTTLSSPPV
Conditions: not given
The compound `Cn1c(-c2c(O)c3ccccc3n(C)c2=O)nc2ccccc21` returned an IC50 of over 25000 nM.

`CNc1cccc2[nH]c(=O)c(-c3nc4ccc(N5CCN(C)CC5)cc4[nH]3)c(N)c12` registered an IC50 of 53 nM.

As for `CN1CCN(c2ccc3nc(-c4c(N)c5cc(F)ccc5[nH]c4=O)[nH]c3c2)CC1`, the IC50 was determined as 78 nM.

`CN1CCN(c2ccc3nc(-c4c(N)c5cc(N)ccc5[nH]c4=O)[nH]c3c2)CC1` registered an IC50 of 19 nM.

The compound `CN1CCN(c2ccc3nc(-c4c(N)c5ccc(F)cc5[nH]c4=O)[nH]c3c2)CC1` yielded an IC50 of 14 nM.

With `Cc1ccc2nc(-c3c(N)c4ccccc4[nH]c3=O)[nH]c2c1`, half-maximal inhibition (IC50) required 220 nM.

As to `Cc1cc2nc(-c3c(N)c4ccccc4[nH]c3=O)[nH]c2cc1C`, the IC50 was found to be 210 nM.

The compound `CN1CCN(C(=O)c2ccc3[nH]c(-c4c(N)c5ccccc5[nH]c4=O)nc3c2)CC1` yielded an IC50 of 26 nM.

`CN1CCN(c2ccc3[nH]c(-c4c(N)c5c(F)cc(F)cc5[nH]c4=O)nc3c2)CC1` had an IC50 of 130 nM.

`CN1CCN(c2ccc3nc(-c4c(N)c5cc(F)c(N(C)C)cc5[nH]c4=O)[nH]c3c2)CC1` showed an IC50 of 5300 nM.

As to `CN1CCN(c2cccc3[nH]c(=O)c(-c4nc5ccccc5[nH]4)c(N)c23)CC1`, 17 nM corresponded to half-maximal inhibition (IC50).

For `CNc1c(-c2nc3ccccc3[nH]2)c(=O)[nH]c2ccccc12`, inhibition was half-maximal at 220 nM (IC50).

Compound `CN1CCN(c2ccc3[nH]c(-c4c(N)c5cc(F)c(F)cc5[nH]c4=O)nc3c2)CC1` came in with an IC50 of 190 nM.

For `CN1CCCN(c2ccc3[nH]c(-c4c(N)c5ccccc5[nH]c4=O)nc3c2)CC1`, the IC50 turned out to be 66 nM.

Compound `Cn1c(=O)c(-c2nc3ccccc3[nH]2)c(O)c2ccccc21` gave an IC50 of 5800 nM.

In turn, `CN1CCN(c2ccc3[nH]c(-c4c(N)c5cc(Cl)ccc5[nH]c4=O)nc3c2)CC1` yielded an IC50 of 43 nM.

`O=c1[nH]c2ccccc2c(NCC2CCNCC2)c1-c1nc2ccccc2[nH]1` came in with an IC50 of 940 nM.

`CN1CCN(c2ccc3nc(-c4c(N)c5cc(C(=O)NCc6ccccc6)ccc5[nH]c4=O)[nH]c3c2)CC1` registered an IC50 of 50 nM.

The compound `Nc1c(-c2nc3ccc(OCCN4CCOCC4)cc3[nH]2)c(=O)[nH]c2ccccc12` yielded an IC50 of 66 nM.

In the case of `CN1CCN(c2ccc3[nH]c(-c4c(N)c5cccc(F)c5[nH]c4=O)nc3c2)CC1`, it took 560 nM to reach half-maximal inhibition (IC50).

Test system in a further assay: not listed separately
The assay can be described thus: Inhibition of VEGF-mediated proliferation of HMVEC after 72 hrs. In kind it is functional, cell-based. The conditions noted are these: Homo sapiens.
In turn, `Cn1c(-c2c(O)c3ccccc3n(C)c2=O)nc2ccccc21` registered an EC50 of over 10000 nM.

As to `CNc1cccc2[nH]c(=O)c(-c3nc4ccc(N5CCN(C)CC5)cc4[nH]3)c(N)c12`, the EC50 was found to be 17 nM.

`CN1CCN(c2ccc3nc(-c4c(N)c5cc(F)ccc5[nH]c4=O)[nH]c3c2)CC1`: the EC50 turned out to be 10 nM.

Compound `CN1CCN(c2ccc3nc(-c4c(N)c5cc(N)ccc5[nH]c4=O)[nH]c3c2)CC1` came in with an EC50 of 17 nM.

`CN1CCN(c2ccc3nc(-c4c(N)c5ccc(F)cc5[nH]c4=O)[nH]c3c2)CC1` yielded an EC50 of 34 nM.

With `Cc1ccc2nc(-c3c(N)c4ccccc4[nH]c3=O)[nH]c2c1`, the EC50 worked out at 64 nM.

`Cc1cc2nc(-c3c(N)c4ccccc4[nH]c3=O)[nH]c2cc1C` registered an EC50 of 150 nM.

As to `CN1CCN(C(=O)c2ccc3[nH]c(-c4c(N)c5ccccc5[nH]c4=O)nc3c2)CC1`, it took 45 nM to reach a half-maximal effect (EC50). Compared with the last compound, the EC50 is about 3.3-fold lower.

`CN1CCN(c2ccc3[nH]c(-c4c(N)c5c(F)cc(F)cc5[nH]c4=O)nc3c2)CC1` returned an EC50 of 80 nM.

The compound `CN1CCN(c2ccc3nc(-c4c(N)c5cc(F)c(N(C)C)cc5[nH]c4=O)[nH]c3c2)CC1` gave an EC50 of 3300 nM.

Take `CN1CCN(c2cccc3[nH]c(=O)c(-c4nc5ccccc5[nH]4)c(N)c23)CC1`: the EC50 was found to be 340 nM.

In turn, `CNc1c(-c2nc3ccccc3[nH]2)c(=O)[nH]c2ccccc12` gave an EC50 of 280 nM.

Consider `CN1CCN(c2ccc3[nH]c(-c4c(N)c5cc(F)c(F)cc5[nH]c4=O)nc3c2)CC1`, for which the EC50 turned out to be 480 nM.

Consider `CN1CCCN(c2ccc3[nH]c(-c4c(N)c5ccccc5[nH]c4=O)nc3c2)CC1`, for which the EC50 was 25 nM.

`Cn1c(=O)c(-c2nc3ccccc3[nH]2)c(O)c2ccccc21`: the EC50 came out at 4600 nM.

Regarding `CN1CCN(c2ccc3[nH]c(-c4c(N)c5cc(Cl)ccc5[nH]c4=O)nc3c2)CC1`, the 50% effective concentration (EC50) was 39 nM.

As for `O=c1[nH]c2ccccc2c(NCC2CCNCC2)c1-c1nc2ccccc2[nH]1`, the EC50 stood at 100 nM.

For `CN1CCN(c2ccc3nc(-c4c(N)c5cc(C(=O)NCc6ccccc6)ccc5[nH]c4=O)[nH]c3c2)CC1`, the EC50 came out at 120 nM.

In turn, `Nc1c(-c2nc3ccc(OCCN4CCOCC4)cc3[nH]2)c(=O)[nH]c2ccccc12` returned an EC50 of 37 nM.

With `CN1CCN(c2ccc3[nH]c(-c4c(N)c5cccc(F)c5[nH]c4=O)nc3c2)CC1`, the EC50 came to 420 nM.

Broadly, the IC50 is the midpoint of a concentration-inhibition curve. In general, EC50 refers to the concentration giving half of the maximal effect. A higher EC50 goes with a need for much substance.
